Molecular target: Cezanne 1 (Homo sapiens (Human), UniProt Q6GQQ9)
Assay: Cezanne 1 biochemical IC50 assay (fluorescence polarisation, TAMRA labelled peptide linked to ubiquitin)
Conditions: Cezanne 1 biochemical IC50 assay; 30 min pre-incubation, read after 2 hr at room temperature; read-out: IC50 range
Protocol: The Cezanne 1 construct was PCR amplified and cloned into a pFLAG-CMV-6c vector (Sigma-Aldrich) with an N-terminal FLAG tag. HEK293T cells were transfected with FLAG-Cezanne 1 using TransIT-LT1 transfection reagent (Mirus) according to the manufacturer's instructions. Cells were harvested 48 hours after transfection. […] The resin was washed two times with low salt buffer and one time with high salt buffer (20 mM Tris, pH 7.5, 500 mM NaCl, 0.5 mM EDTA, 5 mM beta-mercaptoethanol, protease inhibitors (complete mini, Roche) and phosphatase inhibitors (PhosSTOP mini, Roche). To elute the bound Cezanne 1, elution buffer (10 mM Tris, pH 7.5, 150 mM NaCl, 0.5 mM EDTA, 10% glycerol, 0.5% NP40, 5 mM beta-mercaptoethanol, 0.15 mg/ml 3× FLAG peptide (Sigma-Aldrich)) was added to the resin and incubated at 4° C. for 2.5 hours while rotating. The resin was centrifuged at 4000 rpm for 30 seconds, and the supernatant containing purified FLAG-Cezanne 1 was removed and stored at −80° C. […] Dilution plates were prepared at 21 times the final concentration (2100 μM for a final concentration of 100 μM) in 50% DMSO in a 96-well polypropylene V-bottom plate (Greiner #651201). […] Reactions were performed in duplicate in black 384 well plates (small volume, Greiner 784076) in a final reaction volume of 21 μl. Either 1 μl of 50% DMSO or diluted compound was added to the plate. Cezanne 1 was diluted in reaction buffer (40 mM Tris, pH 7.5, 0.005% Tween 20, 0.5 mg/ml BSA, 5 mM—beta-mercaptoethanol) to the equivalent of 0.005 μl/well and 10 μl of diluted Cezanne 1 was added to the compound. Enzyme and compound were incubated for 30 min at room temp. Reactions were initiated by the addition of 50 nM of TAMRA labelled peptide linked to ubiquitin via an iso-peptide bond as fluorescence polarisation substrate. Reactions were read immediately after addition of substrate and following a 2 hr incubation at room temperature. Readings were performed on a Pherastar Plus (BMG Labtech). λ Excitation 540 nm; λ Emission 590 nm.

Sequence of Cezanne 1 (Q6GQQ9 whole entry): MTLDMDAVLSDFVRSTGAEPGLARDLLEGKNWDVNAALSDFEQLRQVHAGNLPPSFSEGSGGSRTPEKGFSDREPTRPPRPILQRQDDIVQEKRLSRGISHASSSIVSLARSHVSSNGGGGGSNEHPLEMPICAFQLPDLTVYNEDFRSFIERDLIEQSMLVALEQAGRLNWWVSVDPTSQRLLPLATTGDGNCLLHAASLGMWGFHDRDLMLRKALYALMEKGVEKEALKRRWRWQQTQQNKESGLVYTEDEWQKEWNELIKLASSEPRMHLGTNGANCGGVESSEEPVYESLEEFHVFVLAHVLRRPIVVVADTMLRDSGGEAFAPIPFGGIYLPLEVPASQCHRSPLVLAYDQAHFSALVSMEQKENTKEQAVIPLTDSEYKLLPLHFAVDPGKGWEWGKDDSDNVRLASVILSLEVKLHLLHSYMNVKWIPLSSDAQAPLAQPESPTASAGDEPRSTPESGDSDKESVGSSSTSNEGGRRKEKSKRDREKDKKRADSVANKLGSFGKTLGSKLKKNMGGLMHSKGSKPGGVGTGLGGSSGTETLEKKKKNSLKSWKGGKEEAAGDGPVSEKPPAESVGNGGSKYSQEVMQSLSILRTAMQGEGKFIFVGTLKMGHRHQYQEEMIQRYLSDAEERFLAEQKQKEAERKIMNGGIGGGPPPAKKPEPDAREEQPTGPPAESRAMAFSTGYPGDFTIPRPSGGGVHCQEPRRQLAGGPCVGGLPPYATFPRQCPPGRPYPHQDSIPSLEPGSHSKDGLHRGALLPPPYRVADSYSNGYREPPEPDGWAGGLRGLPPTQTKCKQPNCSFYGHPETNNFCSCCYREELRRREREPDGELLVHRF

Compound | IC50
N#CN1CC[C@@]2(C1)Oc1ncc(-c3cccc(F)c3)cc1NC2=O [Example 69, (S)-7-(3-Fluorophenyl)-2-oxo-1,2-dihydrospiro[pyrido[2,3-b][1,4]oxazine-3,3′-pyrrolidine]-1′-carbonitrile] | 0.1 to 1 µM
N#Cc1ccc(-c2cnc3c(c2)NC(=O)[C@@]2(CCN(C#N)C2)O3)cc1 [Example 70, (S)-7-(4-Cyanophenyl)-2-oxo-1,2-dihydrospiro[pyrido[2,3-b][1,4]oxazine-3,3′-pyrrolidine]-1′-carbonitrile] | 0.1 to 1 µM
N#Cc1cccc(-c2cnc3c(c2)NC(=O)[C@@]2(CCN(C#N)C2)O3)c1 [Example 71, (S)-7-(3-Cyanophenyl)-2-oxo-1,2-dihydrospiro[pyrido[2,3-b][1,4]oxazine-3,3′-pyrrolidine]-1′-carbonitrile] | 0.1 to 1 µM
N#CN1CC[C@@]2(C1)Nc1ncc(-c3ccc(F)cc3)cc1NC2=O [Example 72, (S)-7-(4-Fluorophenyl)-2-oxo-1,4-dihydro-2H-spiro[pyrido[2,3-b]pyrazine-3,3′-pyrrolidine]-1′-carbonitrile] | 0.1 to 1 µM
N#CN1CC[C@@]2(C1)Nc1ncc(-c3cccc(F)c3)cc1NC2=O [Example 73, (S)-7-(3-Fluorophenyl)-2-oxo-1,4-dihydro-2H-spiro[pyrido[2,3-b]pyrazine-3,3′-pyrrolidine]-1′-carbonitrile] | 0.1 to 1 µM
N#CN1CC[C@@]2(C1)Oc1ncc(-c3ccc(F)cc3)cc1NC2=O [Example 74, (S)-7-(4-Fluorophenyl)-2-oxo-1,2-dihydrospiro[pyrido[2,3-b][1,4]oxazine-3,3′-pyrrolidine]-1′-carbonitrile] | 0.1 to 1 µM
N#Cc1cccc(-c2cnc3c(c2)NC(=O)[C@@]2(CCN(C#N)C2)N3)c1 [Example 75, (S)-7-(3-Cyanophenyl)-2-oxo-1,4-dihydro-2H-spiro[pyrido[2,3-b]pyrazine-3,3′-pyrrolidine]-1′-carbonitrile] | 0.1 to 1 µM
C[C@H]1NC(=O)C2(CCN(C#N)C2)NC1=O (stereo partly drawn) [Example 76, (8R)-8-Methyl-7,10-dioxo-2,6,9-triazaspiro[4.5]decane-2-carbonitrile] | 1 to 10 µM
N#CN1CCC2(C1)NC(=O)CNC2=O (centres unmarked) [Example 77, 7,10-Dioxo-2,6,9-triazaspiro[4.5]decane-2-carbonitrile] | 1 to 10 µM
C[C@@H]1NC(=O)C2(CCN(C#N)C2)NC1=O (stereo partly drawn) [Example 78, (8S)-8-Methyl-7,10-dioxo-2,6,9-triazaspiro[4.5]decane-2-carbonitrile] | 1 to 10 µM
N#CN1CCC2(C1)NC(=O)C(c1ccccc1)NC2=O (centres unmarked) [Example 79, 7,10-Dioxo-8-phenyl-2,6,9-triazaspiro[4.5]decane-2-carbonitrile] | 1 to 10 µM
CCC1CC2(CCN(C#N)C2)C(=O)N1 (centres unmarked) [Example 80, 8-Ethyl-6-oxo-2,7-diazaspiro[4.4]nonane-2-carbonitrile] | > 10 µM
N#CN1CCC2(CC(Cc3ccccc3)NC2=O)C1 (centres unmarked) [Example 81, 8-Benzyl-6-oxo-2,7-diazaspiro[4.4]nonane-2-carbonitrile] | 1 to 10 µM
N#CN1CCC2(C1)OCc1ccccc1NC2=O (centres unmarked) [Example 85, 2-Oxo-1,5-dihydro-2H-spiro[benzo[e][1,4]oxazepine-3,3′-pyrrolidine]-1′-carbonitrile] | 1 to 10 µM
N#CN1CCC2(CNc3ncccc3NC2=O)C1 (centres unmarked) [Example 86, 2-Oxo-1,2,4,5-tetrahydrospiro[pyrido[2,3-b][1,4]diazepine-3,3′-pyrrolidine]-1′-carbonitrile] | 0.1 to 1 µM
CC1(c2ccccc2)NC(=O)C2(CCN(C#N)C2)NC1=O (centres unmarked) [Example 87, 8-Methyl-7,10-dioxo-8-phenyl-2,6,9-triazaspiro[4.5]decane-2-carbonitrile] | 0.1 to 1 µM
N#CN1CCC2(Cc3ccc(-c4cccc(OC(F)(F)F)c4)cc3NC2=O)C1 (centres unmarked) [Example 88, 2′-Oxo-7′-(3-(trifluoromethoxy)phenyl)-1′,4′-dihydro-2′H-spiro[pyrrolidine-3,3′-quinoline]-1-carbonitrile] | 1 to 10 µM
CN(C)C(=O)c1ccc(-c2ccc3c(c2)NC(=O)C2(CCN(C#N)C2)C3)cc1 (centres unmarked) [Example 89, 4-(1-Cyano-2′-oxo-1′,4′-dihydro-2′H-spiro[pyrrolidine-3,3′-quinolin]-7′-yl)-N,N-dimethylbenzamide] | 1 to 10 µM
Cn1nccc1-c1ccc2c(c1)CC1(CCN(C#N)C1)C(=O)N2 (centres unmarked) [Example 94, 6′-(1-Methyl-1H-pyrazol-5-yl)-2′-oxo-1′,4′-dihydro-2′H-spiro[pyrrolidine-3,3′-quinoline]-1-carbonitrile] | 0.1 to 1 µM
N#CN1CCC2(Cc3cc(-c4cccc(OC(F)(F)F)c4)ccc3NC2=O)C1 (centres unmarked) [Example 95, 2′-Oxo-6′-(3-(trifluoromethoxy)phenyl)-1′,4′-dihydro-2′H-spiro[pyrrolidine-3,3′-quinoline]-1-carbonitrile] | 0.1 to 1 µM
N#CN1CCC2(Cc3cc(-c4ccc(Oc5ccccc5)cc4)ccc3NC2=O)C1 (centres unmarked) [Example 96, 2′-Oxo-6′-(4-phenoxyphenyl)-1′,4′-dihydro-2′H-spiro[pyrrolidine-3,3′-quinoline]-1-carbonitrile] | 1 to 10 µM
Cn1cc(-c2ccc3c(c2)CC2(CCN(C#N)C2)C(=O)N3)cn1 (centres unmarked) [Example 97, 6′-(1-Methyl-1H-pyrazol-4-yl)-2′-oxo-1′,4′-dihydro-2′H-spiro[pyrrolidine-3,3′-quinoline]-1-carbonitrile] | 0.1 to 1 µM
CNC(=O)c1ccc(-c2ccc3c(c2)CC2(CCN(C#N)C2)C(=O)N3)cn1 (centres unmarked) [Example 98, 5-(1-Cyano-2′-oxo-1′,4′-dihydro-2′H-spiro[pyrrolidine-3,3′-quinolin]-6′-yl)-N-methylpicolinamide] | 0.1 to 1 µM
CNC(=O)c1ccc(-c2ccc3c(c2)CC2(CCN(C#N)C2)C(=O)N3)cc1 (centres unmarked) [Example 100, 4-(1-Cyano-2′-oxo-1′,4′-dihydro-2′H-spiro[pyrrolidine-3,3′-quinolin]-6′-yl)-N-methylbenzamide] | 0.1 to 1 µM
COc1ccc(C(C)C)cc1-c1ccc2c(c1)CC1(CCN(C#N)C1)C(=O)N2 (centres unmarked) [Example 101, 6′-(5-Isopropyl-2-methoxyphenyl)-2′-oxo-1′,4′-dihydro-2′H-spiro[pyrrolidine-3,3′-quinoline]-1-carbonitrile] | 0.1 to 1 µM
N#CN1CCC2(Cc3cc(-c4cccc(OCc5ccccc5Cl)c4)ccc3NC2=O)C1 (centres unmarked) [Example 102, 6′-(3-((2-Chlorobenzyl)oxy)phenyl)-2′-oxo-1′,4′-dihydro-2′H-spiro[pyrrolidine-3,3′-quinoline]-1-carbonitrile] | 1 to 10 µM
COc1ccc(-c2ccc3c(c2)CC2(CCN(C#N)C2)C(=O)N3)cn1 (centres unmarked) [Example 103, 6′-(6-Methoxypyridin-3-yl)-2′-oxo-1′,4′-dihydro-2′H-spiro[pyrrolidine-3,3′-quinoline]-1-carbonitrile] | 0.1 to 1 µM
CC(C)Oc1ccc(F)cc1-c1ccc2c(c1)CC1(CCN(C#N)C1)C(=O)N2 (centres unmarked) [Example 104, 6′-(5-Fluoro-2-isopropoxyphenyl)-2′-oxo-1′,4′-dihydro-2′H-spiro[pyrrolidine-3,3′-quinoline]-1-carbonitrile] | 0.1 to 1 µM
CN1CCN(C(=O)c2ccc(-c3ccc4c(c3)CC3(CCN(C#N)C3)C(=O)N4)cc2)CC1 (centres unmarked) [Example 106, 6′-(4-(4-Methylpiperazine-1-carbonyl)phenyl)-2′-oxo-1′,4′-dihydro-2′H-spiro[pyrrolidine-3,3′-quinoline]-1-carbonitrile] | 1 to 10 µM
